One block for each molecule: values may come before it.
Key:
[1] = molecular target: rabbit Cav1.1 (rCav1.1) α1 subunit (Oryctolagus cuniculus, UniProt P07293); experiment: cryo-EM structure; type: binding
human Cav1.2 = human Cav1.2 (Homo sapiens, UniProt Q13936); experiment: calcium influx assay in HEK293 cells; type: cell-based
rabbit Cav1.1 α1 subunit = rabbit Cav1.1 α1 subunit (rabbit, UniProt P07293 1-1873); experiment: cryo-EM structure
rabbit Cav1.1 α1 subunit, sequence (P07293 whole entry): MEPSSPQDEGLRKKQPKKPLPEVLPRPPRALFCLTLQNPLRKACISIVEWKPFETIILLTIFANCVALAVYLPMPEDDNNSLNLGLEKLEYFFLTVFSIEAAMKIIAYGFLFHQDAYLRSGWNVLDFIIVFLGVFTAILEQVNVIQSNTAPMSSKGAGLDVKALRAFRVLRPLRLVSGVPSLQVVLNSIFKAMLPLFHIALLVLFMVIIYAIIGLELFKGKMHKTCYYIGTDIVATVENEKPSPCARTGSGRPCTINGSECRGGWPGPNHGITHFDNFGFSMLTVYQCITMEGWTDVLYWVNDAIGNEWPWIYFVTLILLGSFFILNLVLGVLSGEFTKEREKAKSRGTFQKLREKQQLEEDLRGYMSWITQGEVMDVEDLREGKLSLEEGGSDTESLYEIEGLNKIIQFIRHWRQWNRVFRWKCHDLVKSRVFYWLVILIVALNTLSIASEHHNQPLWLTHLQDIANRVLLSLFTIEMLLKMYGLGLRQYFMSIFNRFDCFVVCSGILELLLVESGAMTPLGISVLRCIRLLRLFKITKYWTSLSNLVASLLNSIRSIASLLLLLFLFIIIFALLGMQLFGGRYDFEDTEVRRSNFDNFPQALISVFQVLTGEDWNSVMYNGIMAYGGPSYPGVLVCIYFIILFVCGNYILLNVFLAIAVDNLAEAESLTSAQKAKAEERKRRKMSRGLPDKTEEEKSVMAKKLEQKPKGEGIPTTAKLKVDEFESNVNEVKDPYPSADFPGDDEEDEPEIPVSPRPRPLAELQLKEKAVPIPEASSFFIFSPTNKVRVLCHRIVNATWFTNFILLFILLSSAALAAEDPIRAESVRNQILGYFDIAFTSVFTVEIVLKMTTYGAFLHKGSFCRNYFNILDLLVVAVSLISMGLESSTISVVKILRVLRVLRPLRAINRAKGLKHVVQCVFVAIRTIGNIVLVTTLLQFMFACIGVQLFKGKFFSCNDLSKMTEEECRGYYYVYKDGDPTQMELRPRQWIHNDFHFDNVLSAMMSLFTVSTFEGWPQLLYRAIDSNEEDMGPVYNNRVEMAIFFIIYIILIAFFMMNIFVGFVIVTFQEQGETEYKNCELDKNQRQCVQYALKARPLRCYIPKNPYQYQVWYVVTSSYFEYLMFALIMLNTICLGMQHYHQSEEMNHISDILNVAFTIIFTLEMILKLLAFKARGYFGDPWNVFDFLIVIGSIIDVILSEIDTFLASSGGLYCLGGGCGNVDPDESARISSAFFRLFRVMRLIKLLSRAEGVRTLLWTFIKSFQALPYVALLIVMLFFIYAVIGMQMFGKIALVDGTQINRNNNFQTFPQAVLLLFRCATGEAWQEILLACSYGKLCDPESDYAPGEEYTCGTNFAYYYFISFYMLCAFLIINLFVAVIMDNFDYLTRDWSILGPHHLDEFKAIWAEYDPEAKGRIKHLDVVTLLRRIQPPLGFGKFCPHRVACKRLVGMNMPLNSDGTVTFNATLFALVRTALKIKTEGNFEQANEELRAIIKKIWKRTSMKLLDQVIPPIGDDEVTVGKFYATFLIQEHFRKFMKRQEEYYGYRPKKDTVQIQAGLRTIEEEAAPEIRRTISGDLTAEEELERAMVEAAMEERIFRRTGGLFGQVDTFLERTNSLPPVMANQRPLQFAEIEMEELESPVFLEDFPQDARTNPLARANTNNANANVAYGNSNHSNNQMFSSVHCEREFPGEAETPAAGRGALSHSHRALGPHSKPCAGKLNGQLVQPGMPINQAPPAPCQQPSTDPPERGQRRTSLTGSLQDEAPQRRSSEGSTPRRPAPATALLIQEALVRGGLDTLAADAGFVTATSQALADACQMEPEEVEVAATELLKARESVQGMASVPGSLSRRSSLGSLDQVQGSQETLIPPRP

human Cav1.2, sequence (Q13936 whole entry): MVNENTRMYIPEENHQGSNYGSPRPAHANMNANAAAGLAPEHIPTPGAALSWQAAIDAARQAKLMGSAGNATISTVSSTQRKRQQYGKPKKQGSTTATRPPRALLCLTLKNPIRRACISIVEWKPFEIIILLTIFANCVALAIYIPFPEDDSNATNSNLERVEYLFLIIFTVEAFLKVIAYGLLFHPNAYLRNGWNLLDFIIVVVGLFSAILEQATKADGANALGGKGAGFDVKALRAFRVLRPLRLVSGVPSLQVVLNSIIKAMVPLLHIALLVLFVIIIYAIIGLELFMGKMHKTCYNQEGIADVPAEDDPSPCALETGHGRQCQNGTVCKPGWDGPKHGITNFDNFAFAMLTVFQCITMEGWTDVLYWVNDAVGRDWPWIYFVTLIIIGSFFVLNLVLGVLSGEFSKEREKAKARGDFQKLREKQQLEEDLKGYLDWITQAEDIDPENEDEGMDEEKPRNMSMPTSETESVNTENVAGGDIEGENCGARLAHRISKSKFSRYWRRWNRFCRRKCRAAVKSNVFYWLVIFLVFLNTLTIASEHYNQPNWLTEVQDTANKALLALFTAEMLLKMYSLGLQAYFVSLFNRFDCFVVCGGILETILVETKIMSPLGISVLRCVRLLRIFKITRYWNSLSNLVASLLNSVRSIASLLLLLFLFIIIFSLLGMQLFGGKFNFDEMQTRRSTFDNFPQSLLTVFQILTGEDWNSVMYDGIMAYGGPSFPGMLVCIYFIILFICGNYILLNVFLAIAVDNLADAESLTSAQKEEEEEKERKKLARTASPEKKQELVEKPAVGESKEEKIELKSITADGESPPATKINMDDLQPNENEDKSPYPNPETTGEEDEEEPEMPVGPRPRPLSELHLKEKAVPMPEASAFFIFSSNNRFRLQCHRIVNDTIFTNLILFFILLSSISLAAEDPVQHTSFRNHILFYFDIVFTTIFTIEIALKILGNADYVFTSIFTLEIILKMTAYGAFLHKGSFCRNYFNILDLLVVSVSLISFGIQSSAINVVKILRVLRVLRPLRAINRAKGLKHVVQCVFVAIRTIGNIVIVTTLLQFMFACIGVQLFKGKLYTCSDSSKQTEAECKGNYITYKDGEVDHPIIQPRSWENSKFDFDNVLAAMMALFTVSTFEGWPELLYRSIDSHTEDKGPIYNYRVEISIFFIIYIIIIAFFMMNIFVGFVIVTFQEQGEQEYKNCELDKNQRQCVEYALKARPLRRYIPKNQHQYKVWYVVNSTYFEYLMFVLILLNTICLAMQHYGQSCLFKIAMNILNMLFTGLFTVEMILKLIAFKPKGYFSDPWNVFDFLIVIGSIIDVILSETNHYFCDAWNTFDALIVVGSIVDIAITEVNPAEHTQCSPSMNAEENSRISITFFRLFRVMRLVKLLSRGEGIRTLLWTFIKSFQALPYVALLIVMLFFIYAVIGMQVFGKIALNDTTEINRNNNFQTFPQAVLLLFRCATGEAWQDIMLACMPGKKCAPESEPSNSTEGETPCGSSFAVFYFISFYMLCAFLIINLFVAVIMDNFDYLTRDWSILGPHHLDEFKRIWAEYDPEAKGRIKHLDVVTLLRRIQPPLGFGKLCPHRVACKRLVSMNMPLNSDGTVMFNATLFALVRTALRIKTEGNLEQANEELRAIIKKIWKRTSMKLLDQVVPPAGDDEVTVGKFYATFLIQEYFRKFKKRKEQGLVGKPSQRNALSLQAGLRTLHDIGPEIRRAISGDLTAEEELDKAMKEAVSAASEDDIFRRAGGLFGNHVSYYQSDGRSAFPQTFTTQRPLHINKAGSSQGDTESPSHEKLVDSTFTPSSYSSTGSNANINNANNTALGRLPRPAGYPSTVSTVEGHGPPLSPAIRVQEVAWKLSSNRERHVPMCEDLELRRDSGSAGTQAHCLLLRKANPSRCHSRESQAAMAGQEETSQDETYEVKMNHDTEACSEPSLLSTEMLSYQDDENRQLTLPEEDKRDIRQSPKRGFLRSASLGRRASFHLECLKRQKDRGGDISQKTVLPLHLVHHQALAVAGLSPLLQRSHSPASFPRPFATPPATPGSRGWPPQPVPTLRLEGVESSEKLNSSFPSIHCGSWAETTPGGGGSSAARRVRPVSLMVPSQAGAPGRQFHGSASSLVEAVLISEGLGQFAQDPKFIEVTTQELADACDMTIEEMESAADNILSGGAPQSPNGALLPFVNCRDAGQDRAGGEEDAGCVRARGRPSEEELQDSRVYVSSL

Molecule: CCCCc1oc2ccccc2c1C(=O)c1cc(I)c(OCCN(CC)CC)c(I)c1 [AMIO, amiodarone]
- cryo-EM structure (2.8 Å) [1]: AMIO occupies the same site as for DHP compounds, i.e., the III-IV fenestration enclosed by S5III, S6III, and S6IV

Molecule: C#C[C@]1(C)[C@@H](O)[C@@H](COP(=O)(N[C@@H](C)C(=O)OC(C)C)Oc2ccccc2)O[C@H]1n1ccc(=O)[nH]c1=O (stereo partly drawn) [MNI-1]
- IC50 (human Cav1.2): > 100 µM

- binding result (rabbit Cav1.1 α1 subunit): binds
B1: rabbit γ1 subunit (natural protein, UniProt P19518 1-222, looked up)
chain: MSPTEAPKVRVTLFCILVGIVLAMTAVVSDHWAVLSPHMENHNTTCEAAHFGLWRICTKRIALGEDRSCGPITLPGEKNCSYFRHFNPGESSEIFEFTTQKEYSISAAAISVFSLGFLIMGTICALMAFRKKRDYLLRPASMFYVFAGLCLFVSLEVMRQSVKRMIDSEDTVWIEYYYSWSFACACAAFVLLFLGGISLLLFSLPRMPQNPWESCMDAEPEH

Source: paper PMC9891081 (Cell, 2022)
